Assays:
[1] = system: Bacillus subtilis ATCC 6633; assay: double-dosage method of diffusion in agar; type: cell-based; conditions: for relative activity, Bacillus subtilis ATCC 6633: activity of rifampicin taken as 1000, agar diffusion, 5 and 10 μg/ml, pH 7.4; for antibiotic activity compared with rifampicine (in words): against Bacillus subtilis
Klebsiella pneumoniae = assay: double-dosage method of diffusion in agar; conditions: for relative activity, Klebsiella pneumoniae: activity of rifampicin taken as 1000, agar diffusion, 5 and 10 μg/ml, pH 7.4
Experimental: (§1) This test is based on the logarithmic dependence between the size of the inhibition area associated with the bacterial growth in a layer of agar (response) and the quantity of the applied antibiotic.
(§2) From these solutions buffered solutions were prepared in phosphate buffer, pH 7.4 at concentrations of 5 and 10 μg/ml.
(§3) An initial suspension of the test microorganism (Bacillus subtilis ATCC 6633, Escherichia coli, Bacillus mycoide, Klebsiella pneumoniae, Pseudomonas aeruginosa) was prepared having a UV-light transmission of about 25%. A suitable diffusion medium (for example for Bacillus subtilis: 1 g pepton, 3 g yeast extract, 15-18 g agar, in 1 l water, pH 7.8-8.0 after sterilization) was inoculated with 0.5 ml of the initial suspension per 100 ml medium at a temperature of 60-65° C. 20 ml of the mixture each was filled into Petri's dishes (diameter 100 mm). After hardening of the medium four pits (diameter 5 mm) were placed in each dish and onto every pit 90 μl of the solutions of the reference and the tested compounds were added. The dishes were incubated at 37° C. for at least 15 hours. The sizes (diameters) of the areas of inhibition were then measured with an accuracy of 0.1 mm.
(§4) The activity A was calculated according to • lg A=(lv/w) with • I=lg (high concentration/low concentration), • v=(ΣX1+ΣX2)−(ΣP1+ΣP2), and • w=(ΣX2+ΣP2)−(ΣX1+ΣP1), with • X1: area size in mm at low concentration of the sample, • X2: area size in mm at high concentration of the sample, • P1: area size in mm at low concentration of the reference, • P2: area size in mm at low concentration of the reference,

Pseudomonas aeruginosa = assay: double-dosage method of diffusion in agar; conditions: for relative activity, Pseudomonas aeruginosa: activity of rifampicin taken as 1000, agar diffusion, 5 and 10 μg/ml, pH 7.4
Experimental: as §1, §2, §3, §4

M. tuberculosis H37Rv = assay: ex vivo anti-mycobacterial activity, growth in mouse macrophages; type: cell-based, Mycobacterium tuberculosis; conditions: for Macrophage Data, Monolayer 1 / Macrophage Data, Monolayer 2 / Macrophage Data, Monolayer 3 / Macrophage Data, Monolayer 4 / Macrophage Data, Monolayer mean: J774 mouse macrophages infected with M. tuberculosis H37Rv; for Macrophage Data, Monolayer 1 / Macrophage Data, Monolayer 2 / Macrophage Data, Monolayer 3 / Macrophage Data, Monolayer 4: 24 hours with compound; for in vitro and ex vivo activity against Mycobacterium tuberculosis compared with rifampicine (in words): general statement of the description; for Macrophage Data, Monolayer mean: mean of monolayers 1-4, 24 hours
Bacillus mycoide = assay: double-dosage method of diffusion in agar; conditions: activity of rifampicin taken as 1000, 5 and 10 μg/ml, pH 7.4
Experimental: as §1, §2
An initial suspension of the test microorganism (Bacillus subtilis ATCC 6633, Escherichia coli, Bacillus mycoide, Klebsiella pneumoniae, Pseudomonas aeruginosa) was prepared having a UV-light transmission of about 25%. A suitable diffusion medium (for example for Bacillus subtilis: 1 g pepton, 3 g yeast extract, 15-18 g agar, in 1 l water, pH 7.8-8.0 after sterilization) was inoculated with 0.5 ml of the initial suspension per 100 ml medium at a temperature of 60-65° C. 20 ml of the mixture each was filled into Petri's dishes (diameter 100 mm). […] The sizes (diameters) of the areas of inhibition were then measured with an accuracy of 0.1 mm.
as §4

Escherichia coli = assay: double-dosage method of diffusion in agar; conditions: for relative activity, Escherichia coli: activity of rifampicin taken as 1000, agar diffusion, 5 and 10 μg/ml, pH 7.4
Experimental: as §1, §2, §3, §4

Row | Compound | relative activity, Bacillus subtilis ATCC 6633 [1] | antibiotic activity compared with rifampicine (in words) [1] | relative activity, Klebsiella pneumoniae (Klebsiella pneumoniae) | relative activity, Pseudomonas aeruginosa (Pseudomonas aeruginosa) | Macrophage Data, Monolayer 1 (M. tuberculosis H37Rv) [CFU/ml] | Macrophage Data, Monolayer 2 (M. tuberculosis H37Rv) [CFU/ml] | Macrophage Data, Monolayer 3 (M. tuberculosis H37Rv) [CFU/ml] | Macrophage Data, Monolayer 4 (M. tuberculosis H37Rv) [CFU/ml] | in vitro and ex vivo activity against Mycobacterium tuberculosis compared with rifampicine (in words) (M. tuberculosis H37Rv) | Macrophage Data, Monolayer mean (M. tuberculosis H37Rv) [CFU/ml] | relative activity, Bacillus mycoide (Bacillus mycoide) | relative activity, Escherichia coli (Escherichia coli) | antibiotic activity compared with rifampicine (in words) (Klebsiella pneumoniae; against K. pneumoniae) | antibiotic activity compared with rifampicine (in words) (Pseudomonas aeruginosa; against P. aeruginosa) | antibiotic activity compared with rifampicine (in words) ([1]; listed as N-(methyloxycarbonyl)-3-aminorifamycin S) | antibiotic activity compared with rifampicine (in words) ([1]; listed as methyl) | antibiotic activity compared with rifampicine (in words) (Escherichia coli; against E. coli)
1 | COC1C=COC2(C)Oc3c(C)c(O)c4c(c3C2=O)C(=O)C(NC(=O)OCCBr)=C(NC(=O)C(C)=CC=CC(C)C(O)C(C)C(O)C(C)C(OC(C)=O)C1C)C4=O (stereo not drawn) [R = 2-bromoethyl, N-(2-Bromoethyloxycarbonyl)-3-aminorifamicin S] | 6600 | about six times higher than rifampicine |  |  |  |  |  |  |  |  |  |  |  |  |  |  | 
2 | COC1C=COC2(C)Oc3c(C)c(O)c4c(c3C2=O)C(=O)C(NC(=O)OCc2ccc([N+](=O)[O-])cc2)=C(NC(=O)C(C)=CC=CC(C)C(O)C(C)C(O)C(C)C(OC(C)=O)C1C)C4=O (stereo not drawn) [R = 4-nitrobenzyl, N-(4-Nitrobenzyloxycarbonyl)-3-aminorifamicin S] | 5400 | about six times higher than rifampicine |  |  |  |  |  |  |  |  |  |  |  |  |  |  | 
3 | CCOC(=O)NC1=C2NC(=O)C(C)=CC=CC(C)C(O)C(C)C(O)C(C)C(OC(C)=O)C(C)C(OC)C=COC3(C)Oc4c(C)c(O)c(c(c4C3=O)C1=O)C2=O (stereo not drawn) [R = ethyl, N-(Ethyloxycarbonyl)-3-aminorifamycin S] | 2050 |  | 1030 | 920 | 0.00 | 200.00 | 0.00 | 0.00 | at least as high or even higher as the activity of rifampicine | 50.00 | 1150 | 690 |  |  |  |  | 
4 | COC(=O)NC1=C2NC(=O)C(C)=CC=CC(C)C(O)C(C)C(O)C(C)C(OC(C)=O)C(C)C(OC)C=COC3(C)Oc4c(C)c(O)c(c(c4C3=O)C1=O)C2=O (stereo not drawn) [R = methyl, N-(Methyloxycarbonyl)-3-aminorifamycin S] | 6000 |  | 1900 | 1750 | 0.00 | 0.00 | 0.00 | 200.00 | at least as high or even higher as the activity of rifampicine | 50.00 | 2000 | 2100 | twice as high as rifampicine | twice as high as rifampicine | twice as high as rifampicine | about six times higher than rifampicine | twice as high as rifampicine
5 | CO[C@H]1/C=C/O[C@@]2(C)Oc3c(C)c(O)c4c(O)c(c(/C=N/N5CCN(C)CC5)c(O)c4c3C2=O)NC(=O)/C(C)=C\C=C\[C@H](C)[C@H](O)[C@@H](C)[C@@H](O)[C@@H](C)[C@H](OC(C)=O)[C@@H]1C [rifampicine, reference compound] |  |  |  |  | 0.00 | 200.00 | 600.00 | 800.00 |  | 400.00 |  |  |  |  |  |  | 

— patent US20060009463A1, “N-(3-rifamycinyl)-carbamates, method of preparing them and their use for treating and preventing tuberculosis” (priority 2002, published 2006)
